Experimental data published in US10443081B2, “Methods for the expression of peptides and proteins” (Numaferm GmbH, priority 2013, dated 2019).
Read-outs that look alike come from different tables or passages of the source.

Target: T1, HlyA1-IFABP fusion protein (encoded by pIAR_207, SEQ ID NO: 20; IFABP wt accession NP_037200) (Rattus norvegicus, UniProt P02693)
T1 construct: pIAR_207
Assay: Fluorescence spectroscopy titration with DAUDA, refolded HlyA1-IFABP
Type: binding
Details: 100 nM protein, 20 mM KH2PO4, 0.25 mM EDTA, pH 7.3, excitation 350 nm, emission 500 nm
Method: SEC analyses of refolded HlyA1-IFABP. A and C: SDS-PAGE gel of elution fractions from SEC analysis of HlyA1-IFABP refolded with Ca^2+ and elution chromatogram of the SEC. B and D: SDS-PAGE gel of elution fractions from SEC analysis of HlyA1-IFABP refolded with EDTA and elution chromatogram of the SEC. E: Purified HlyA1-IFABP in the presence of either Ca^2+ or EDTA were incubated with Factor Xa and protein samples were analyzed by SDS-PAGE at indicated time points. The arrow indicates the position of IFABP. F and G: Functional studies of HlyA1-IFABP using titration experiments with DAUDA. F: HlyA1-IFABP was refolded in the presence of Ca^2+ and purified by SEC. DAUDA was titrated to HlyA1-IFABP, the fluorescence signal at 500 nm was recorded and plotted against the DAUDA concentration. […]
11-(Dansylamino)undecanoic acid (DAUDA, Cayman Chemical) was prepared as a 1 mM stock solution in 50% isopropanol and 50% buffer (20 mM KH2PO4, 0.25 mM EDTA, pH 7.3) and further diluted to the appropriate concentrations with buffer. […] The fluorescence signal was recorded at a wavelength of 500 nm after excitation at 350 nm using a Fluorolog®-3 (Horiba) (Kim and Frieden (1998) Protein Sci, 7, 1821-1828). […] Fluorescence signals of DAUDA in buffer in the absence of protein was subtracted as background. The corrected and normalized fluorescence signals were plotted against the DAUDA concentration. […]

T1 sequence (P02693 1-132 with tags or gaps): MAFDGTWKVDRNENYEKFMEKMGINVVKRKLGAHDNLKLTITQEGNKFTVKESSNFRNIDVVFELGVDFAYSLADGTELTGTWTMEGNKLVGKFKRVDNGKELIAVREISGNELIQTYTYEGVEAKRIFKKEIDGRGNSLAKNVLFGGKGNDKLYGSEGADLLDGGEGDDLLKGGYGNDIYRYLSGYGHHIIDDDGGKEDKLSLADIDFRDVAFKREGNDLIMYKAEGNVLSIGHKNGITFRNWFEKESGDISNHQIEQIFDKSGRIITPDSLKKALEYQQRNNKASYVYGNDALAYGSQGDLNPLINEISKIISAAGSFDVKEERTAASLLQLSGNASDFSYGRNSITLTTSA

SMILES: CN(C)c1cccc2c(S(=O)(=O)NCCCCCCCCCCC(=O)O)cccc12 [DAUDA, 11-(((5-(dimethylamino)-1-naphthalenyl)sulfonyl)amino)-undecanoic acid]
- Kd (refolded in the presence of Ca^2+, purified by SEC, read-out: KD for HlyA1-IFABP refolded in Ca^2+): 0.141 µM
- Kd (refolded/purified in the presence of EDTA, read-out: KD for HlyA1-IFABP refolded in EDTA): 0.264 µM
